Columns and labels:
[1] = system: Stellaria; assay: Herbicidal post-emergence action, greenhouse; format: in vivo; settings: 320 g of a.i./ha
Description: (§1) Herbicidal Post-Emergence Action
(§2) Seeds of monocotyledonous and dicotyledonous weed and crop plants are placed into sandy loam in wood fibre pots, covered with soil and cultivated in a greenhouse under good growth conditions. 2-3 weeks after sowing, the test plants are treated at the one-leaf stage. The test compounds, formulated as wettable powders (WP), are, in various dosages with a water application rate of 600 l/ha (converted), with 0.2% of wetting agent added, sprayed onto the green parts of the plants. After the test plants were kept in the greenhouse under optimum growth conditions for about 3 weeks, the effect of the preparations is rated visually in comparison to untreated controls (herbicidal effect in percent (%): 100% effect=the plants have died, 0% effect=like control plants).

[2] = system: Setaria; assay: Herbicidal post-emergence action, greenhouse; format: in vivo; settings: 320 g of a.i./ha
Description: as §1, §2

[3] = system: Avena sativa; assay: Herbicidal post-emergence action, greenhouse; format: in vivo; settings: 320 g of a.i./ha, greenhouse (T22-T24)
Description: as §1, §2

[4] = system: Amaranthus; assay: Herbicidal post-emergence action, greenhouse; format: in vivo; settings: 320 g of a.i./ha, second series (T27, T28)
Description: as §1, §2

[5] = system: Lolium; assay: Herbicidal post-emergence action, greenhouse; format: in vivo; settings: 320 g of a.i./ha
Description: as §1, §2

[6] = system: Meloidogyne incognita; assay: Meloidogyne test; format: in vivo; settings: 20 ppm; nematicidal action by formation of galls on lettuce roots
Description: To produce a suitable preparation of active compound, 1 part by weight of active compound is mixed with the stated amounts of solvent and emulsifier, and the concentrate is diluted with water to the desired concentration.
Vessels are filled with sand, solution of active compound, Meloidogyne incognita egg/larvae suspension and lettuce seeds. The lettuce seeds germinate and the plants develop. On the roots, galls develop.
After the desired period of time, the nematicidal action is determined in % by the formation of galls. 100%, means that no galls have been found; 0% means that the number of galls on the treated plants corresponds to that of the untreated control.

[7] = system: greenhouse red spider mite (Tetranychus urticae); assay: Tetranychus test (OP-resistant/spray treatment); format: in vivo
Description: Tetranychus Test (OP-Resistant/Spray Treatment)
To produce a suitable preparation of active compound, 1 part by weight of active compound is mixed with the stated amounts of solvents and emulsifier, and the concentrate is diluted with emulsifier-containing water to the desired concentration.
Discs of bean leaves (Phaseolus vulgaris), which are infested by all stages of the greenhouse red spider mite (Tetranychus urticae), are sprayed with a preparation of active compound of the desired concentration.
After the desired period of time, the activity in % is determined. 100% means that all spider mites have been killed; 0% means that none of the spider mites have been killed.

[8] = system: Sinapis; assay: Herbicidal post-emergence action, greenhouse; format: in vivo; settings: 320 g of a.i./ha, greenhouse (T22)
Description: as §1, §2

[9] = system: larvae of the mustard beetle (Phaedon cochleariae); assay: Phaedon test (spray treatment); format: in vivo; settings: 100 g/ha
Description: Phaedon Test (Spray Treatment) To produce a suitable preparation of active compound, 1 part by weight of active compound is mixed with the stated amounts of solvents and emulsifier, and the concentrate is diluted with emulsifier-containing water to the desired concentration. Discs of Chinese cabbage (Brassica pekinensis) are sprayed with a preparation of active compound of the desired concentration and, after they have dried, populated with larvae of the mustard beetle (Phaedon cochleariae).

[10] = system: Summer wheat; assay: Container trials with cereals in the greenhouse, without/with safener; settings: in vivo
[11] = system: Summer barley; assay: as above; settings: in vivo
[12] = greenhouse, second series (T26, T28)
[13] = greenhouse, second series (T25-T28)

Structure (SMILES) | herbicidal effect, Stellaria ([1]; greenhouse (T23)) [%] | herbicidal effect, Stellaria [1, 12] [%] | herbicidal effect, Setaria ([2]; greenhouse (T22-T24)) [%] | herbicidal effect, Setaria [2, 13] [%] | herbicidal effect, Avena sativa [3] [%] | herbicidal effect, Amaranthus [4] [%] | herbicidal effect, Lolium ([5]; greenhouse (T22-T24)) [%] | herbicidal effect, Lolium [5, 13] [%] | Effect in % after 14d [6] [%] | Kill rate in % after 5d ([7]; 100 g/ha) [%] | herbicidal effect, Sinapis [8] [%] | Kill rate in % after 7d [9] [%] | Summer wheat observed (%) [10] [%] | Kill rate in % after 5d ([7]; 500 g/ha) [%] | Summer barley observed (%) [11] [%]
CCc1cc(C)cc(Br)c1C1=C(O)C2CCCN2C1=O (centres unmarked) [I-a-1] | 70 | 70 | 90 | 90 | 90 | 100 | 100 | 90 | 80 | – | – | – | – | – | –
CCc1cc(C)cc(Br)c1C1=C(O)C(C)N(CC)C1=O (centres unmarked) [I-a-5] | – | – | 100 | – | 80 | – | 90 | – | – | 90 | – | – | – | – | –
CCc1cc(C)cc(Br)c1C1=C(O)C(CC)N(C)C1=O (centres unmarked) [I-a-6] | – | – | 100 | – | 80 | – | 100 | – | – | 80 | 70 | 100 | – | – | –
CCc1cc(C)cc(Br)c1C1=C(O)CN(C2CC2)C1=O [I-a-7] | – | 80 | 100 | 80 | 90 | – | 100 | 100 | – | – | 70 | 100 | – | – | –
CCc1cc(C)cc(Br)c1C1=C(OC(=O)C(C)(C)C)C2CCCN2C1=O (centres unmarked) [I-b-1] | – | – | 90 | 100 | 90 | 70 | 90 | 100 | – | – | – | – | – | – | –
CCc1cc(C)cc(Br)c1C1=C(OC(=O)C(C)C)C(C)(C)NC1=O [I-b-2] | – | – | 100 | – | 90 | – | 100 | – | – | – | 70 | – | – | – | –
CCOC(=O)OC1=C(c2c(Br)cc(C)cc2CC)C(=O)N(C)C1CC (centres unmarked) [I-c-6] | – | 70 | 100 | 80 | 80 | – | 90 | 80 | – | 70 | – | – | 15 | – | –
CCOC(=O)OC1=C(c2c(Br)cc(C)cc2CC)C(=O)N(CC)C1C (centres unmarked) [I-c-7] | – | – | 100 | – | 80 | – | 90 | – | – | – | – | – | – | 90 | 10

From patent US20070225170A1, “2-Halo-6-Alkylphenyl-Substituted Tetramic Acid Derivatives” (BAYER CROPSCIENCE AKTIENGESELLSCHAFT, priority 2003, published 2007)
